The results in this text go back to patent US10407422B2, “Triazolopyridine inhibitors of myeloperoxidase” (priority 2015, dated 2019).

Assay [1] deals with T1, myeloperoxidase (MPO) (Homo sapiens (Human), UniProt P05164). The experiment in a line: MPO chlorination assay (APF assay). The assay is classed as biochemical. To be noted: potency range class. A digest of the protocol:
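Human MPO (200 pM) preincubated 10 min at room temperature with inhibitor and 120 mM NaCl in 100 mM KPi pH 7.4. Reaction started with APF plus 10 μM H2O2, and hypochlorite-generated fluorescein read kinetically (ex 485/em 535 nm) for 3 min. IC50 from linear-phase slopes fitted to a four-parameter equation.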

In assay [2] the target is T1, myeloperoxidase (MPO). The assay can be described thus: MPO peroxidation assay (Amplex Red assay). The assay is classed as biochemical. To be noted: potency range class. The gist of the method:
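Human MPO at 200 pM with 40 nM H2O2 preincubated 10 min at room temperature with inhibitor in 100 mM KPi pH 7.4. Reaction started with Amplex Red mixture (200 μM Amplex Red, 10 mM H2O2); resorufin fluorescence (Ex 535, Em 590 nm) read kinetically for 15 min. IC50 fitted from slopes over 180-540 s.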

T1 sequence (P05164 49-745): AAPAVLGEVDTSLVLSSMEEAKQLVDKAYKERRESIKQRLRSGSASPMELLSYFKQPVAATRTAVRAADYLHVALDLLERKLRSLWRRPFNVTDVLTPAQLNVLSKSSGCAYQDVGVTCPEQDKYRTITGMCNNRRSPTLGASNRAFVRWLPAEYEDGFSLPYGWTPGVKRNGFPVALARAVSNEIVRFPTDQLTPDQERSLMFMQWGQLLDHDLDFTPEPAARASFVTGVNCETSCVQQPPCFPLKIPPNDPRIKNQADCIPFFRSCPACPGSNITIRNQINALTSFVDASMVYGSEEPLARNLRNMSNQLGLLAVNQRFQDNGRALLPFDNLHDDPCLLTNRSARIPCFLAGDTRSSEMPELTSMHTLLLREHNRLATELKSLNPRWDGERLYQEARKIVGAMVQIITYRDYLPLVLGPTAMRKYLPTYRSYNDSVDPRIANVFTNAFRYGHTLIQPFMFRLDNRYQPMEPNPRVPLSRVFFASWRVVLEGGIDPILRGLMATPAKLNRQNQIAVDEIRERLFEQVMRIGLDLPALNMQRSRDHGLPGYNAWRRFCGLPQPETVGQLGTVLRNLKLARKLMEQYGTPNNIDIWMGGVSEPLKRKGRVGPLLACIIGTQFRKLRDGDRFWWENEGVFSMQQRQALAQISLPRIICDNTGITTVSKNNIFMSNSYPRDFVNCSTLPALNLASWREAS

A word on the IC50: it is the concentration that gives 50% inhibition. A higher IC50 goes with lower potency. For `Cn1ccc(-c2cccc(Cn3cc(Cc4cc(N)nc5[nH]nnc45)cn3)c2)n1` [Example 100, 7-((1-(3-(1-Methyl-1H-pyrazol-3-yl)benzyl)-1H-pyrazol-4-yl)methyl)-3H-[1,2,3]triazolo[4,5-b]pyridin-5-amine], the IC50 in assay [1] and in assay [2] was 1 to 100 nM in each case.
On to `Cn1nnc2cc(Cn3cc(Cc4cc(N)nc5[nH]nnc45)cn3)ccc21` [Example 179, 7-({1-[(1-Methyl-1H-1,2,3-benzotriazol-5-yl)methyl]-1H-pyrazol-4-yl}methyl)-3H-[1,2,3]triazolo[4,5-b]pyridin-5-amine], for which the IC50 was 101 to 999 nM in assay [1] and 1 to 100 nM in assay [2].
In the case of `Nc1cc(Cc2cnn(Cc3ccc(N4CCOCC4)cc3)c2)c2nn[nH]c2n1` [Example 111, 7-((1-(4-Morpholinobenzyl)-1H-pyrazol-4-yl)methyl)-3H-[1,2,3]triazolo[4,5-b]pyridin-5-amine], the IC50 in assay [1] lay within 101 to 999 nM; in assay [2], 1000 to 10000 nM.
Consider `Nc1cc(Cc2cnn(Cc3cccc(-c4c[nH]cn4)c3)c2)c2nn[nH]c2n1` [Example 278, 7-[(1-{[3-(1H-Imidazol-4-yl)phenyl]methyl}-1H-pyrazol-4-yl)methyl]-3H-[1,2,3]triazolo[4,5-b]pyridin-5-amine], for which the figures for the IC50 in assay [1] and in assay [2] were 101 to 999 nM and 1 to 100 nM, respectively.
For `Cc1nnc(C(C)NC(=O)c2ccc(Cn3cc(Cc4cc(N)nc5[nH]nnc45)cn3)cc2)[nH]1` (centres unmarked) [Example 95, 4-{[4-({5-Amino-3H-[1,2,3]triazolo[4,5-b]pyridin-7-yl}methyl)-1H-pyrazol-1-yl]methyl}-N-[1-(5-methyl-4H-1,2,4-triazol-3-yl)ethyl]benzamide], in that order: 101 to 999 nM and 101 to 999 nM.
`Nc1cc(Cc2cnn(Cc3ccc4c(c3)C(=O)NCC4)c2)c2nn[nH]c2n1` [Example 259, 7-{[4-({5-Amino-3H-[1,2,3]triazolo[4,5-b]pyridin-7-yl}methyl)-1H-pyrazol-1-yl]methyl}-1,2,3,4-tetrahydroisoquinolin-1-one]: the IC50 was in the range of 101 to 999 nM in assay [1] and 1 to 100 nM in assay [2].
For `CC1CC(c2cccc(Cn3cc(Cc4cc(N)nc5[nH]nnc45)cn3)c2)CCN1` (centres unmarked) [Example 211, 7-[(1-{[3-(2-Methylpiperidin-4-yl)phenyl]methyl}-1H-pyrazol-4-yl)methyl]-3H-[1,2,3]triazolo[4,5-b]pyridin-5-amine] the same measures were 1 to 100 nM and 1 to 100 nM.
Consider `Cc1nn(-c2ccccc2)nc1Cn1cc(Cc2cc(N)nc3[nH]nnc23)cn1` [Example 114, 7-((1-((5-Methyl-2-phenyl-2H-1,2,3-triazol-4-yl)methyl)-1H-pyrazol-4-yl)methyl)-3H-[1,2,3]triazolo[4,5-b]pyridin-5-amine], for which the IC50 in assay [1] was 101 to 999 nM; in assay [2] it was 1 to 100 nM.
With `Nc1cc(Cc2cnn(Cc3ccc(OC(F)F)cc3)c2)c2nn[nH]c2n1` [Example 104, 7-((1-(4-(Difluoromethoxy)benzyl)-1H-pyrazol-4-yl)methyl)-3H-[1,2,3]triazolo[4,5-b]pyridin-5-amine], the results for the IC50 in assay [1] and in assay [2] were 101 to 999 nM and 1 to 100 nM, respectively.
Regarding `Nc1cc(Cc2cnn(Cc3ccc(C(=O)NCc4cncnc4)cc3)c2)c2nn[nH]c2n1` [Example 93, 4-{[4-({5-Amino-3H-[1,2,3]triazolo[4,5-b]pyridin-7-yl}methyl)-1H-pyrazol-1-yl]methyl}-N-(pyrimidin-5-ylmethyl)benzamide], the IC50 in assay [1] fell in the range of 101 to 999 nM; in assay [2] it was 1 to 100 nM.
For `Nc1cc(Cc2cnn(Cc3ccc4ccccc4c3)c2)c2nn[nH]c2n1` [Example 42, 7-((1-(Naphthalen-2-ylmethyl)-1H-pyrazol-4-yl)methyl)-3H-[1,2,3]triazolo[4,5-b]pyridin-5-amine] the same measures were 1 to 100 nM and 1 to 100 nM.
For `CC(C)(C)OC(=O)N1CCc2ccc(Cn3cc(Cc4cc(N)nc5[nH]nnc45)cn3)cc2C1` [Example 148, tert-Butyl 7-{[4-({5-amino-3H-[1,2,3]triazolo[4,5-b]pyridin-7-yl}methyl)-1H-pyrazol-1-yl]methyl}-1,2,3,4-tetrahydroisoquinoline-2-carboxylate], in that order: 101 to 999 nM and 101 to 999 nM.
Take `CN(C)CCCNC(=O)c1ccc(Cn2cc(Cc3cc(N)nc4[nH]nnc34)cn2)cc1` [Example 89, 4-{[4-({5-Amino-3H-[1,2,3]triazolo[4,5-b]pyridin-7-yl}methyl)-1H-pyrazol-1-yl]methyl}-N-[3-(dimethylamino)propyl]benzamide]: the values for the IC50 in assay [1] and in assay [2] were 101 to 999 nM and 1 to 100 nM, respectively.
On to `Nc1cc(Cn2nnc3c(Cl)cccc32)c2nn[nH]c2n1` [Example 166], for which the IC50 in assay [1] and in assay [2] was 1000 to 10000 nM throughout.
As for `Nc1cc(Cc2cnn(Cc3cccc(N4C[C@@H]5C[C@H]4CN5)c3)c2)c2nn[nH]c2n1` [Example 224, 7-{[1-({3-[(1S,4S)-2,5-Diazabicyclo[2.2.1]heptan-2-yl]phenyl}methyl)-1H-pyrazol-4-yl]methyl}-3H-[1,2,3]triazolo[4,5-b]pyridin-5-amine], the IC50 in assay [1] lay within 1 to 100 nM; in assay [2], 101 to 999 nM.
For `Nc1cc(Cc2cnn(Cc3ccc(C(=O)NCc4cnco4)cc3)c2)c2nn[nH]c2n1` [Example 92, 4-{[4-({5-Amino-3H-[1,2,3]triazolo[4,5-b]pyridin-7-yl}methyl)-1H-pyrazol-1-yl]methyl}-N-(1,3-oxazol-5-ylmethyl)benzamide] the same measures were 1000 to 10000 nM and 101 to 999 nM.
Regarding `Nc1cc(Cc2cnn(Cc3cccc(C(F)(F)F)c3)c2)c2nn[nH]c2n1` [Example 62, 7-((1-(3-(Trifluoromethyl)benzyl)-1H-pyrazol-4-yl)methyl)-3H-[1,2,3]triazolo[4,5-b]pyridin-5-amine], the IC50 was in the range of 101 to 999 nM in assay [1] and 1 to 100 nM in assay [2].
For `Nc1cc(Cc2cnn(Cc3cccc(CC4CCNCC4)c3)c2)c2nn[nH]c2n1` [Example 207, 7-[(1-{[3-(Piperidin-4-ylmethyl)phenyl]methyl}-1H-pyrazol-4-yl)methyl]-3H-[1,2,3]triazolo[4,5-b]pyridin-5-amine], in that order: 101 to 999 nM and 1 to 100 nM.
For `Nc1cc(Cc2cnn(Cc3ccc4c(c3)NCCC4)c2)c2nn[nH]c2n1` [Example 152, 7-{[1-(1,2,3,4-Tetrahydroquinolin-7-ylmethyl)-1H-pyrazol-4-yl]methyl}-3H-[1,2,3]triazolo[4,5-b]pyridin-5-amine], in that order: 1 to 100 nM and 1000 to 10000 nM.
As to `Nc1cc(Cc2cnn(CC3CC4(CCNCC4)C3)c2)c2nn[nH]c2n1` [Example 274, 7-[(1-{7-Azaspiro[3.5]nonan-2-ylmethyl}-1H-pyrazol-4-yl)methyl]-3H-[1,2,3]triazolo[4,5-b]pyridin-5-amine], the IC50 in assay [1] lay within 101 to 999 nM; in assay [2] it was 1 to 100 nM.
For `Nc1cc(Cc2cnn(Cc3cccc(N4CCNC(c5cccc(Cl)c5)C4)c3)c2)c2nn[nH]c2n1` (centres unmarked) [Example 218, 7-{[1-({3-[3-(3-Chlorophenyl)piperazin-1-yl]phenyl}methyl)-1H-pyrazol-4-yl]methyl}-3H-[1,2,3]triazolo[4,5-b]pyridin-5-amine] the same measures were 1 to 100 nM and 101 to 999 nM.
For `Nc1cc(Cc2cnn(C(CCO)c3ccccc3)c2)c2nn[nH]c2n1` (centres unmarked) [Example 143, 3-(4-((5-Amino-3H-[1,2,3]triazolo[4,5-b]pyridin-7-yl)methyl)-1H-pyrazol-1-yl)-3-phenylpropan-1-ol] the same measures were 101 to 999 nM and 101 to 999 nM.
With `Nc1cc(Cc2cnn(Cc3cccc([C@H]4CNC(Cc5ccccc5)C4)c3)c2)c2nn[nH]c2n1` (stereo partly drawn) [Example 203, 7-{[1-({3-[(3S)-5-benzylpyrrolidin-3-yl]phenyl}methyl)-1H-pyrazol-4-yl]methyl}-3H-[1,2,3]triazolo[4,5-b]pyridin-5-amine], the IC50 in assay [1] and in assay [2] was 1 to 100 nM each time.
Consider `Nc1cccc(Cn2cc(Cc3cc(N)nc4[nH]nnc34)cn2)c1` [Example 126, 7-((1-(3-Aminobenzyl)-1H-pyrazol-4-yl)methyl)-3H-[1,2,3]triazolo[4,5-b]pyridin-5-amine], for which the IC50 was in the range of 101 to 999 nM in assay [1] and 1 to 100 nM in assay [2].
For `Nc1cc(Cc2cnn(-c3cccc(-c4ccccc4)c3)c2)c2nn[nH]c2n1` [Example 11, 7-((1-([1,1′-Biphenyl]-3-yl)-1H-pyrazol-4-yl)methyl)-3H-[1,2,3]triazolo[4,5-b]pyridin-5-amine] the same measures were 1 to 100 nM and 1 to 100 nM.
For `Nc1cc(Cn2nc3ccc(Cl)cc3n2)c2nn[nH]c2n1` [Example 163, 7-[(5-Chloro-2H-1,2,3-benzotriazol-2-yl)methyl]-3H-[1,2,3]triazolo[4,5-b]pyridin-5-amine], in that order: 1000 to 10000 nM and 1000 to 10000 nM.
For `Nc1cc(Cc2cnn(Cc3cccc(O[C@@H]4CCNC4)c3)c2)c2nn[nH]c2n1` [Example 239, 7-{[1-({3-[(3R)-Pyrrolidin-3-yloxy]phenyl}methyl)-1H-pyrazol-4-yl]methyl}-3H-[1,2,3]triazolo[4,5-b]pyridin-5-amine], in that order: 1 to 100 nM and 1 to 100 nM.
On to `Nc1cc(Cc2cnn(Cc3ccc(C(=O)O)cc3)c2)c2nn[nH]c2n1` [Example 46, 4-((4-((5-Amino-3H-[1,2,3]triazolo[4,5-b]pyridin-7-yl)methyl)-1H-pyrazol-1-yl)methyl)benzoic acid], for which the IC50 in assay [1] and in assay [2] was 1000 to 10000 nM each time.
